Data taken from patent EP0551662A1, “Benzofuranyl- and thiophenylmethylthio-alcanecarboxylic acid derivatives” (BAYER AG, priority 1992, dated 1993).

Columns and labels:
[1] = test system: polymorphonuclear granulocytes; test: FMLP-induced chemiluminescence of polymorphonuclear granulocytes (inhibition of FMLP-stimulated production of superoxide radical anions); type: cell-based; details: human PMN
Experimental: 1. Preparation of human PMN Blood was taken from healthy subjects by venous puncture and neutrophils were purified by dextran sedimentation and resuspended in the buffered medium. 2. Inhibition of FMLP-stimulated production of superoxide radical anions. Neutrophils (2.5 × 10⁵ ml⁻¹) were mixed with the compounds according to the invention in dimethyl sulphoxide (DMSO), the final concentration of the compounds according to the invention being 10 µM and the DMSO concentration being 1% v/v. After addition of luminol, final concentration about 10⁻⁵M and 33 µg/ml of cytochalasin B, the cells were stimulated with a final concentration of about 5 × 10⁻⁸ M FMLP. Measurement of the chemiluminescence peaks was carried out using an LKB 1251 luminometer. The inhibition of the superoxide and the reduction of cytochrome C by FMLP-stimulated cells was likewise measured. Neutrophils (2.6 × 10⁵ ml⁻¹) were mixed with the compounds according to the invention as in the chemiluminescence experiment. Cytochrome C with a concentration of […] is also present. The superoxide-dependent cytochrome C reduction was measured using a Molecular Devices Thermomax plate reader. The inhibition of superoxide production was calculated as follows: [formula] […]

NADPH oxidase = biological target: T1, NADPH oxidase (Homo sapiens, UniProt P04839); test: NADPH oxidase assay in membrane fractions of PMA-stimulated neutrophils; type: biochemical; details: final concentration of 33 µM of the test substance
T1 construct: endogenous in cells; host or cells: neutrophils, PMA-stimulated, sonicated; membrane fraction
T1 sequence (P04839 2-570 limits assumed): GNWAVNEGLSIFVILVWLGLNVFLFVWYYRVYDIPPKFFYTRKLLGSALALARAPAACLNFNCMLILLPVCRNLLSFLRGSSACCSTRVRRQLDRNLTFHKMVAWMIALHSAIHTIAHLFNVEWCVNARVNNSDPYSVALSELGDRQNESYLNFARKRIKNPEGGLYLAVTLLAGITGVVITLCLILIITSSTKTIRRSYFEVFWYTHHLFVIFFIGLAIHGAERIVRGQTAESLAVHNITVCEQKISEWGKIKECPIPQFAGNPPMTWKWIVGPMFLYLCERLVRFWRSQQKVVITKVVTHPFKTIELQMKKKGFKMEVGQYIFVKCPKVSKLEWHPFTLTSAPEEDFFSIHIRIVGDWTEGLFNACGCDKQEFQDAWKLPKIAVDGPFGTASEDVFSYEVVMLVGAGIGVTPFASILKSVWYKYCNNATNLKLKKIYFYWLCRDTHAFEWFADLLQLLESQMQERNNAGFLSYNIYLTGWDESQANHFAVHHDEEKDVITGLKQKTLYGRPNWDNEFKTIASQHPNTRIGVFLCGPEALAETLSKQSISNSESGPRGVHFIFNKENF
T1 sequence (P13498 2-195 partner limits assumed): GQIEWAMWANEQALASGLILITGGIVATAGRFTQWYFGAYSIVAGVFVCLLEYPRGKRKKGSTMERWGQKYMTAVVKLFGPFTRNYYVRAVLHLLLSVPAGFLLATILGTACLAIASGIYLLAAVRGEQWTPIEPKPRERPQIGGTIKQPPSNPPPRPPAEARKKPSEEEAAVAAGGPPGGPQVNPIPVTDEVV
Experimental: 3. Inhibition of myeloperoxidase The compounds according to the invention were tested for their action on human neutrophil myeloperoxidase activity by the established method of Bos, A.J. et al., Infection and Immunity, 1981, 32 (2), 427-431. 4. Xanthine oxidase assay Equal parts of the substrate (7.5 mM hypoxanthine) were incubated at 25°C with the compounds according to the invention or carrier, and 10⁻⁵ M luminol and the enzyme xanthine oxidase were added immediately before starting the luminescence measurement. The formation of superoxide was then measured for 140 sec in the 1251 luminometer. The activity was in each case measured against xanthine oxidase in the presence or absence of the compounds according to the invention by monitoring the growth of the absorption at 292 nm due to the formation of uric acid. 5. Determination of the specificity When neutrophils are activated by PMA or FMLP, they release the lysosomal enzyme beta-glucuronidase. […] Using a concentration of 10⁶ cells ml⁻¹, the compounds according to the invention were tested in parallel using a cell preparation thereof to gauge their capability to inhibit FMLP-induced superoxide production and FMLP-induced beta-glucuronidase release. 6. NADPH oxidase assay Neutrophils were stimulated with PMA and treated with ultrasound, and a membrane fraction was prepared. […]

mitochondrial fraction = test: Mitochondrial substrate oxidation assay (oxygen electrode); type: biochemical; details: NADPH oxidation by mitochondria, final concentration of 300 µM of the test substance, guinea pig hearts
Experimental: 7. Mitochondrial substrate oxidation assay A mitochondrial fraction was prepared from finely-cut guinea pig hearts. […] The compounds according to the invention were tested to gauge their inhibition of cell respiration by measurement of their effect on the oxidation of these two substances at a concentration of up to 100 µg/ml⁻¹. % inhibition of NADPH oxidation by mitochondria at a final concentration of 300 µM of the test substance Table C

IC50 ([1]; read-out: IC₅₀) [nM]	inhibition at 33 µM (NADPH oxidase) [%]	Structure (SMILES)	inhibition at 10 µM ([1]; 10 µM of the test substance) [%]	% inhibition (mitochondrial respiration) (mitochondrial fraction) [%]
700	21 ± 7	COc1ccc(C(=O)c2oc3ccccc3c2CSCCC(=O)O)cc1C(=O)NS(=O)(=O)c1ccccc1C [Example 17, 2-[4-Methoxy-3-(2-tolylsulphonamide-carbonyl)-benzoyl]-3-[(2-carboxyethyl)thiomethyl]benzo[b]furan]	96 ± 2	24 ± 2
–	20	COc1ccc(C(=O)c2oc3ccccc3c2CSCCC(=O)O)cc1C(=O)O [Example 31]	–	0 ± 7
